IC50, inhibition and EC50 data for seven compounds are collected here from US10604529B2, “Fused imidazole compound having indoleamine 2,3-dioxygenase inhibitory activity” (SHENZHEN CHIPSCREEN BIOSCIENCES CO., LTD., priority 2016, dated 2020).

Usually IC50 stands for the midpoint of a concentration-inhibition curve. Broadly, the EC50 is the concentration at which the effect is half-maximal.

Experiment [1] addresses T1, Recombinant human IDO enzyme (IDO1 enzyme) (Homo sapiens, UniProt P14902).
T1 construct: purchased BPS Bioscience, USA
Kind of experiment: In vitro IDO enzymatic activity assay (kynurenine colour reaction, 492 nm). It is filed as biochemical. The note with it: for IC50: recombinant human IDO enzyme; for inhibition at 0.2 µM: tested compound concentration 200 nM, recombinant human IDO1, read-out: IDO Enzymatic Inhibition Rate (%) (200 nM). On the procedure: The basic principle of the in vitro IDO enzymatic activity detection is to use the IDO enzyme to metabolize the substrate L-tryptophan to produce the product kynurenine in an in vitro enzyme-catalyzed reaction system. The kynurenine is yellow in color reaction with p-dimethylaminobenzaldehyde in glacial acetic acid, and the absorbance value was measured at 492 nm on a microplate reader. The concentration of the product kynurenine in the sample is calculated by comparison to a standard curve of kynurenine with a known concentration.
Recombinant human IDO enzyme (IDO1 enzyme) was purchased from BPS Bioscience, USA.
(3) Control reactions were set up at the same time the detection reaction was carried out. including 0 inhibition positive control with no tested compound added and 0 enzyme negative control with no enzyme added. All tests were run in duplicate.
(4) After the enzymatic reaction was completed, 40 μl of a pre-formulated 30% (w/v) trichloroacetic acid solution was added, and reacted at 65° C. for 20 minutes, followed by centrifugation at 12,000 rpm for 15 minutes.
(5) 100 μl of the supernatant after centrifugation was pipetted and added to a 96-well plate. An equal volume of 2% p-dimethylaminobenzaldehyde in glacial acetic acid was added, well mixed, and allowed to stand at room temperature for 10 minutes.
(6) A microplate reader (ELX800NB) was used to detect the color signal of each well with a detection wavelength of 492 nm.
In addition, the enzymatic inhibition rates were calculated for the tested compounds of different concentration gradients, and then the enzymatic half maximal inhibitory concentration (IC50) was calculated using the IC50 calculator.
According to the above-mentioned method of experiment, the compound of the present disclosure was subjected to an in vitro IDO enzymatic IC50 assay using NLG919 as a positive control compound.

Experiment [2] addresses T2, IFN-γ-induced IDO enzyme in HeLa cells (Homo sapiens, UniProt P14902).
T2 construct: HeLa cells are human cervical cancer cell lines and can up-regulate the expression of endogenous IDO enzymes; endogenous in cells; host or cells: HeLa cells stimulated with human IFN-γ
Kind of experiment: Detection of IDO inhibitory activity at the cellular level (IFN-γ-induced HeLa cells). It is filed as cell-based. The note with it: 48 hours; for EC50: human IFN-γ induced, read-out: IDO EC50 (nM) at the Cellular Level (column head: IC50 (nM)); for inhibition at 1 µM: tested compound 1 μM, human IFN-γ 50 ng/ml, read-out: IDO Inhibitory Rate (%) (1 μM). From the text: In the present disclosure, IFN-γ-induced IDO enzyme expression in HeLa cells were used as a model to detect the IDO enzymatic inhibitory activity of the compound at the cellular level. HeLa cells are human cervical cancer cell lines and can up-regulate the expression of endogenous IDO enzymes under the induction of human IFN-γ. The cell supernatant can be subjected to detection of the enzyme-catalyzed product kynurenine by adding the substrate L-tryptophan to the cell culture solution. […] Recombinant human IFN-γ cytokine purchased from Sangon Biotech, Phenol red-free DMEM for cell culture purchased from Gibco. […] The cells were further cultured for 48 hours and detected. (2) 200 μl of the supernatant from the culture well was pipetted, 40 μl of a pre-formulated 30% (w/v) trichloroacetic acid solution was added, allowed to react at 65° C. for 20 minutes, and then centrifuged at 12,000 rpm for 15 minutes. (3) 100 μl of the supernatant after centrifugation was pipetted and added into a 96-well plate, an equal volume of 2% p-dimethylaminobenzaldehyde in glacial acetic acid was added, and they were mixed well and allowed to stand at room temperature for 10 minutes. (4) A microplate reader (ELX800NB) was used to detect the color signal of each well, and the detection wavelength was 492 nm.

T1 sequence (P14902 whole entry): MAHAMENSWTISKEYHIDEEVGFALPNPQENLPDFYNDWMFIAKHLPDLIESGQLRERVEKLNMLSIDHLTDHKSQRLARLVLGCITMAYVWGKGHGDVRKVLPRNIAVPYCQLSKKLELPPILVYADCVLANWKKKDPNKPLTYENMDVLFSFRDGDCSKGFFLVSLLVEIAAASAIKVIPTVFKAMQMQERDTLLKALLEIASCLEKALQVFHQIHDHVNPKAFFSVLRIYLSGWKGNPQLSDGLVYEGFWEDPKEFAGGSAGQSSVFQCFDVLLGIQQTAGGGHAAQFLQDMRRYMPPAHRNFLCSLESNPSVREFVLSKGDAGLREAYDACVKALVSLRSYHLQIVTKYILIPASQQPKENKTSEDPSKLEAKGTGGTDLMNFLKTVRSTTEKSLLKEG
T2 sequence (P14902 whole entry): as above

With `O=C(COc1ccccc1)N1CCC(C(O)CC2c3ccccc3-c3cncn32)CC1` (stereo not drawn) [Example 7, 1-(4-(1-hydroxy-2-(5H-imidazo[5,1-a]isoindol-5-yl)ethyl)piperidin-1-yl)-2-phenoxyethyl-1-one], in experiment [1], the IC50 worked out at 55 nM and the inhibition at 0.2 µM amounted to 85%. In experiment [2], the EC50 came out at 154 nM and the inhibition at 1 µM was 93%.

In the case of `CN(CC(=O)N1CCC(C(O)CC2c3ccccc3-c3cncn32)CC1)c1cccc(Cl)c1` (stereo not drawn) [Example 63], the inhibition at 0.2 µM in experiment [1] came out at 90%. In addition, the inhibition at 1 µM in experiment [2] is 99%.

On to `CN(CC(=O)N1CCC(C(O)CC2c3ccccc3-c3cncn32)CC1)c1ccc(C#N)cc1` (stereo not drawn) [Example 98], for which, in experiment [1], the inhibition at 0.2 µM was determined as 81%. In addition, the inhibition at 1 µM in experiment [2] came to 83%.

With `Cc1ccc(OCC(=O)N2CCC(C(O)CC3c4ccccc4-c4cncn43)CC2)cc1C` (stereo not drawn) [Example 46, 2-(3,4-dimethylphenoxy)-1-(4-(1-hydroxy-2-(5H-imidazo[5,1-a]isoindol-5-yl)ethyl)piperidin-1-yl)ethyl-1-one], the inhibition at 0.2 µM in experiment [1] was 83%. The inhibition at 1 µM in experiment [2] came to 93%.

Regarding `O=C(COc1ccc2ncccc2c1)N1CCC(C(O)CC2c3ccccc3-c3cncn32)CC1` (stereo not drawn) [Example 23, 1-(4-(1-hydroxy-2-(5H-imidazo[5,1-a]isoindol-5-yl)ethyl)piperidin-1-yl)-2-(quinolin-6-yloxy)ethyl-1-one], in experiment [1], the inhibition at 0.2 µM came out at 80%. Also, the inhibition at 1 µM in experiment [2] came out at 77%.

Turning to `CN(CC(=O)N1CCC(C(O)CC2c3ccccc3-c3cncn32)CC1)c1ccccc1` (stereo not drawn) [Example 59, 1-(4-(1-hydroxy-2-(5H-imidazo[5,1-a]isoindol-5-yl)ethyl)piperidin-1-yl)-2-(methyl(phenyl)amino)ethyl-1-one], in experiment [1], the IC50 came to 159 nM and the inhibition at 0.2 µM turned out to be 83%. In experiment [2], the EC50 is 169 nM and the inhibition at 1 µM is 92%.

For `O=C(COc1ccc(F)cc1)N1CCC(C(O)CC2c3ccccc3-c3cncn32)CC1` (stereo not drawn) [Example 43, 2-(4-fluorophenoxy)-1-(4-(1-hydroxy-2-(5H-imidazo[5,1-a]isoindol-5-yl)ethyl)piperidin-1-yl)ethyl-1-one], the inhibition at 0.2 µM in experiment [1] was 83%. The inhibition at 1 µM in experiment [2] turned out to be 89%.
